Measured values from patent US10766873B2, “Zuclopenthixol hydrochloride derivatives and Ebselen derivatives as ErbB2 inhibitors” (Centre National de la Recherche Scientifique (CNRS), priority 2016, dated 2020).
Where two headings read alike, the source gives them in different places.

Tests used:
SKBR3 = experiment: MTT cell proliferation, SKBR3; type: cell-based, human; conditions: for EC50: read-out: Cell proliferation at d 3 SKBR3 EC50
Procedure: (§1) We then analyzed the ability of ZU and EB1 and their derivatives to decrease the ErbB2-dependent cell proliferation.
(§2) SKBR3, BT474, MCF-7, MDA-MB-231 and HBMEC cells were treated with the compounds as indicated, and cell proliferation was determined each day during 3 days using an MTT assay. Non treated cells were included as a negative control.
(§3) A solution of ZU in cis conformation was mixed to a solution of ZU in trans conformation (1:1) to obtain ZU in a 50/50 cis/trans conformation and their respective effects on ErbB2 activation and ErbB2-dependent cell proliferation were analyzed as previously by dot blot analysis using an anti-phosphotyrosine antibody (clone 4G10) and by MTT assays in the ErbB2-overexpressing breast cancer cell line SKBR3, BT474, or HBMEC as a control.

BT474 = experiment: MTT cell proliferation, BT474; type: cell-based, human; conditions: for EC50: read-out: Cell proliferation at d 3 BT474 EC50
Procedure: as §1, §2, §3

HBMEC = experiment: MTT cell proliferation, HBMEC control cells; type: cell-based, human
Procedure: as §1, §2
The WT, V777L or V842I ErbB2-transfected cells were treated with 5 or 10 μM of ZU and cell proliferation was determined each day during 3 days using an MTT assay. Non transfected cells were included as a negative control.
The WT, V777L or V842I ErbB2-transfected cells were treated with 5 or 10 μM of EB1 and cell proliferation was determined each day during 3 days using an MTT assay. Non transfected cells were included as a negative control.

ErbB2 = ErbB2 (Homo sapiens, UniProt P04626); experiment: ErbB2 phosphorylation in SKBR3 cells, dot blot (4G10); type: cell-based; parameters: endogenous in cells; host or cells: SKBR3; conditions: for Emax: SK-BR-3, read-out: ErbB2 activation 24 h Max inhibition, %; for effect on ErbB2 phosphorylation/activation (in words): SKBR3
Procedure: The ability of ZU and EB1 and their derivatives to inhibit ErbB2 activity in cellulo on a commonly used ErbB2-overexpressing breast cancer cell line SKBR3 was analyzed. SKBR3 were treated 24 h with increasing concentrations of the compounds (0.625-80 μM) and ErbB2 phosphorylation was addressed by dot blot analysis using an anti-phosphotyrosine antibody (clone 4G10). Quantifications show the result of two independent experiments.

[1] = target: T1, FERM/ErbB2 interaction (Ezrin FERM domain / juxtamembrane ErbB2 peptide) (Homo sapiens, UniProt P04626); experiment: AlphaScreen competition assay, FERM/ErbB2 interaction; type: binding; conditions: for Competition assay FERM-ErbB2 interaction Max inhibition, %: 20 h
T1 construct: made in house
Source text: To validate that the Zuclopenthixol hydrochloride (ZU) and its derivatives interact with the juxtamembrane domain of ErbB2, we first analyzed in AlphaScreen® their efficiency to inhibit FERM/ErbB2 interaction in a dose-dependent manner and determined IC50 value. Furthermore, to test the selectivity of those compounds, we tested their ability to disrupt the interaction between the FERM domain and the known ERM binding motif contained in the juxtamembrane region of CD44 as a control.
AlphaScreen® technology was used to assess the interaction between the Ezrin binding motif (EBM) contained in the juxtamembrane portions of ErbB2 or CD44 with the Ezrin FERM domain. For this purpose the Ezrin FERM domain in fusion with Glutathione-S-Transferase (GST) has been coupled to GSH-coated acceptor beads. […] The AlphaScreen® reagents (Glutathione-coated Acceptor beads and streptavidin-coated Donor beads) were obtained from PerkinElmer.
The reaction was performed using white 384-well Optiplates (PerkinElmer, Whalham, Mass., USA) in 20 μl (total reaction volume) in a reaction buffer containing PBS, pH 7.4, 5 mM MgCl2 and 0.02% CHAPS. […] 10 μl of a mix solution containing 20 μg/ml Glutathione-coated Acceptor beads and 20 μg/ml streptavidin-coated Donor beads was then added to the wells and incubation was further proceeded for 40 min or overnight in the dark and at room temperature. Light signal was detected with the EnVision® multilabel plate reader (PerkinElmer). All experiments involving AlphaScreen® beads were performed under subdued lighting.

[2] = test system: EGFR/ErBB2 or ErbB3/ErbB2 heterodimers-dependent signalling pathways; experiment: Ligand-dependent ErbB2 activation (EGF or HRG) in HBMECs, western blot; type: cell-based; conditions: pre-treatment 1 h or 24 h
Procedure: In physiological conditions, ErbB2 activation occurs in heterodimer with the other ErbB family members, such as the EGFR in response to EGF stimulation or ErbB3 in response to heregulin (HRG) stimulation. We therefore addressed whether ZU, EB1 and their derivatives also affected the ligand-dependent physiological ErbB2 activation.
16 h-starved HBMECs cells were pre-treated or not for 1 h or 24 h with ZU, […] and their derivatives or AG1478 before EGF (50 ng/mL) or HRG1β (100 ng/mL) stimulation for 5 minutes. The activation of EGFR/ErBB2 or ErbB3/ErbB2 heterodimers-dependent signalling pathways was then analysed by western blot experiments using pAkt, Akt, pERK, ERK or 4G10 antibodies.

[3] = Homo sapiens, SK-BR-3, 72 h, day 3
[4] = Homo sapiens, BT-474, 72 h, day 3
[5] = Homo sapiens, 72 h, read-out: Cell proliferation at d 3 HBMEC EC50, μM
[6] = Homo sapiens, 72 h, day 3, read-out: Cell proliferation at d 3 HBMEC EC50
[7] = SKBR3, 24 h, read-out: ErbB2 activation 24 h EC50
[8] = SKBR3, 24 h, read-out: IC50 ErbB2 phosphorylation

| Molecule | EC50 (SKBR3; [3]) [µM] | Cell proliferation at d 3 SKBR3 Max inhibition, % (SKBR3; day 3) [%] | EC50 (BT474; [4]) [µM] | Cell proliferation at d 3 BT474 Max inhibition, % (BT474; day 3) [%] | Cell proliferation at d 3 HBMEC Max inhibition, % (HBMEC; day 3) [%] | Emax (ErbB2; SKBR3, 24 h, 0.625-80 μM) [%] | Competition assay FERM-ErbB2 interaction Max inhibition, % [1] [%] | EC50 (ErbB2; [7]) [µM] | inhibition of FERM/ErbB2 interaction (in words) [1] | other results |
| --- | --- | --- | --- | --- | --- | --- | --- | --- | --- | --- |
| NCCN1CCN(CC/C=C2/c3ccccc3Sc3ccc(C(F)(F)F)cc32)CC1 [ZUc, (Z)-2-(4-(3-(2-(trifluoromethyl)-9H-thioxanthen-9-ylidene)propyl)piperazin-1-yl) Ethanamine] | 0.34 | 78.9 | 0.23 | 94.9 | 68.8 | 90.8 | 45 |  |  | toxicity on control cells (in words) (HBMEC): non-specific toxic effects; EC50 (HBMEC; [5]): 0.14 µM; EC50 (ErbB2): 5.13 µM; IC50 (ErbB2): 5 to 35 µM |
| Cc1ccc(-n2sc3ccccc3c2=O)cc1 [EB2] | 9.3 | 34.1 | 11.7 | 20 | 29.5 | 43.8 |  | 18.2 |  | effect on SKBR3 proliferation (in words) (SKBR3; 5 μM): did not significantly decreased; effect on HBMEC proliferation (in words) (HBMEC; 5 μM): without any effect; EC50 (HBMEC; [6]): 11.5 µM; IC50 (ErbB2; [8]): 18 to 20 µM |
| 9-(3-(4-(2-hydroxyethyl)piperazinyl)propylidene)-thioxanthene [ZU3] |  | 32.6 |  | 31.5 | 0 |  | 28 | 32.4 | inhibited FERM/ErbB2 interaction in a specific and dose-dependent manner | reduction of SKBR3 proliferation (SKBR3; 20 μM): 30%; EC50 (SKBR3; day 3): 15.5 µM; reduction of BT474 proliferation (BT474; 20 μM): 30%; EC50 (BT474; day 3): 4.2 µM; effect on HBMEC proliferation (in words) (HBMEC; 20 μM): without any effect; ErbB2 activation 24 h Max inhibition, % (ErbB2; SKBR3, 24 h, 0.625-80 μM): 75.12% |
| O=C(O)C1CCN(CCC=C2c3ccccc3Oc3ccccc32)CC1 [ZUe, 1-(3-(9H-xanthen-9-ylidene)propyl)piperidine-4-carboxylic acid] |  |  |  |  |  | 0 |  |  |  | effect on ErbB2 phosphorylation/activation (in words) (ErbB2): no effect |
| CC(=O)OCCN1CCN(CC/C=C2/c3ccccc3Sc3ccc(Cl)cc32)CC1 [ZU5, (Z)-2-(4-(3-(2-chloro-9H-thioxanthen-9-ylidene)propyl)piperazin-1-yl)ethylacetate] | 3.5 | 28.2 | 17.8 | 30.8 | 24.5 | 97.5 | 41 | 43.6 | inhibited FERM/ErbB2 interaction in a specific and dose-dependent manner | reduction of SKBR3 proliferation (SKBR3; 1 and 5 μM, day 3): 60%; reduction of BT474 proliferation (BT474; 1 and 5 μM, day 3): 33%; effect on HBMEC proliferation (in words) (HBMEC; 1 and 5 μM): without any effect; EC50 (HBMEC; [5]): 21.9 µM; IC50 (ErbB2; [8]): 5 to 35 µM |
| O=c1c2ccccc2[se]n1-c1ccccc1 [EBa, reference compound] |  |  |  |  |  | 15.6 |  | 40.7 |  | ligand-dependent ErbB2 activation induced by EGF or HRG stimulation (in words) [2]: did not block; reduction of ErbB2 phosphorylation (ErbB2; SKBR3, concentration of 10 μM): 15% |
| FCCN1CCN(CC/C=C2/c3ccccc3Sc3ccc(C(F)(F)F)cc32)CC1 [ZUd, (Z)-1-(2-fluoroethyl)-4-(3-(2-(trifluoromethyl)-9H-thioxanthen-9-ylidene)propyl) Piperazine] | 6.7 | 86.4 | 16.5 | 86 |  | 51.4 | 54 |  |  | reduction of SKBR3 proliferation (SKBR3; 20 μM, day 3): 86%; reduction of BT474 proliferation (BT474; 20 μM, day 3): 86%; toxicity on control cells (in words) (HBMEC): non-specific toxic effects; EC50 (HBMEC; [5]): 16.3 µM; inhibition at 20 µM (HBMEC; Homo sapiens, 72 h, 20 μM, day 3): 90%; EC50 (ErbB2): 20.4 µM; IC50 (ErbB2): 5 to 35 µM |
| CCOC(=O)C1CCN(CCC=C2c3ccccc3Sc3ccccc32)CC1 [ZU4, 9-(3-(4-(ethylacetate)piperidine)propylidene)-thioxanthene] |  |  |  |  |  | 27.5 | 36 | 47.9 | inhibited FERM/ErbB2 interaction in a specific and dose-dependent manner | effect on ErbB2 phosphorylation/activation (in words) (ErbB2): lower decrease |
| CS(=O)(=O)CCNCc1ccc(-c2ccc3ncnc(Nc4ccc(OCc5cccc(F)c5)c(Cl)c4)c3c2)o1 [lapatinib, reference compound] |  |  |  |  |  |  |  |  | did not inhibit |  |
| COc1cc2ncnc(Nc3cccc(Cl)c3)c2cc1OC [AG1478] |  |  |  |  |  |  |  |  |  | ligand-dependent ErbB2 activation induced by EGF or HRG stimulation (in words) [2]: strongly blocked |
| CCOC(=O)C1CCN(CCC=C2c3ccccc3Oc3ccccc32)CC1 [ZU6, ethyl 1-(3-(9H-xanthen-9-ylidene)propyl)piperidine-4-carboxylate] |  |  |  |  |  | 36.2 |  | 35.5 |  | effect on ErbB2 phosphorylation/activation (in words) (ErbB2): lower decrease |
| O=C(O)C1CCN(CCC=C2c3ccccc3Sc3ccccc32)CC1 [ZUf, 1-(3-(9H-thioxanthen-9-ylidene)propyl)piperidine-4-carboxylic acid] |  |  |  |  |  | 0 | 11 |  |  | effect on ErbB2 phosphorylation/activation (in words) (ErbB2): no effect |
| CN1CCN(CC/C=C2/c3ccccc3Sc3ccc(S(=O)(=O)N(C)C)cc32)CC1 [ZU2] |  |  |  |  |  | 74.2 | 16 | 31.6 | inhibited FERM/ErbB2 interaction in a specific and dose-dependent manner | IC50 (ErbB2; [8]): 5 to 35 µM |
| OCCN1CCN(CC/C=C2\c3ccccc3Sc3ccc(Cl)cc32)CC1 (single isomer, unassigned) [trans isomer] |  |  |  |  |  |  |  |  |  | effect on SKBR3 proliferation (in words) (SKBR3; 10 μM): no significant inhibitory effect; effect on BT474 proliferation (in words) (BT474; 10 μM): no significant inhibitory effect |
| O=c1c2ccccc2sn1-c1ccc(Cl)cc1 [EB3] | 8.9 | 63.5 | 6.9 | 82.7 | 75.1 | 66.4 |  | 19.5 |  | effect on SKBR3 proliferation (in words) (SKBR3; 7 μM): did not significantly decreased; reduction of BT474 proliferation (BT474; 7 μM, day 2): 30%; effect on HBMEC proliferation (in words) (HBMEC; 7 μM): without any effect; EC50 (HBMEC; [6]): 2770 µM; IC50 (ErbB2; [8]): 18 to 20 µM |
